From patent US12410160B2 (Gilead Sciences, Inc., priority 2021, dated 2025)

Legend:
human KHK-A = human KHK-A (Homo sapiens (Human), UniProt P50053); assay: KHK Biochemical Assay (IC50), ADP-Glo, KHK-A; details: ADP-Glo; average of at least two separate assays
Method: (§1) The His-tagged fusion protein was expressed using BL21 (DE3) with IPTG induction and purified using Ni-NTA column followed by dialysis into final buffer containing 25 mM Tris-HCl pH 8.0, 250 mM NaCl.
(§2) KHK Biochemical Assay (IC50)
(§3) Compounds were tested for KHK enzyme inhibition in a high-throughput 384-well assay format using the ADP-Glo assay (Promega) in buffer consisting of 50 mM Hepes (pH 7.4), 140 mM KCl, 5 mM MgCl2 and 0.01% Triton-X. 0.2 nM. […] Compounds were serially diluted (1:3) in DMSO.
(§4) The compounds were pre-incubated with 5 μL of 2× final enzyme concentration for 30 minutes before adding 5 μL of 2× final concentration of ATP and fructose. The plates were incubated at room temperature for 4 hours before adding ADP-Glo reagent to quench the enzyme reaction, followed by incubation at room temperature for 1 hour. The ADP-Glo detection reagent was then added to the plates and luminescence was measured on the Envision plate reader after 1 hour.

human KHK-C = human KHK-C (Homo sapiens (Human), UniProt P50053); assay: KHK Biochemical Assay (IC50), ADP-Glo, KHK-C; details: ADP-Glo; average of at least two separate assays
Method: as §1, §2, §3, §4

human KHK-C, sequence (P50053 whole entry): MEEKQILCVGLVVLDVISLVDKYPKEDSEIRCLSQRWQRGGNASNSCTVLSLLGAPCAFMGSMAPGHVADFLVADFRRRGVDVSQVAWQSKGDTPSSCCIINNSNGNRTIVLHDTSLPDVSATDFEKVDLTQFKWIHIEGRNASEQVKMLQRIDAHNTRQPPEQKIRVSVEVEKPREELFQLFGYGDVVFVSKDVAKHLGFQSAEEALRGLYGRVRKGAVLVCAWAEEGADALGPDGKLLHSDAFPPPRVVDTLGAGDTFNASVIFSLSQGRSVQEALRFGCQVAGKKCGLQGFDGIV
human KHK-A, sequence (P50053 other isoform, or with tags, fused parts or gaps): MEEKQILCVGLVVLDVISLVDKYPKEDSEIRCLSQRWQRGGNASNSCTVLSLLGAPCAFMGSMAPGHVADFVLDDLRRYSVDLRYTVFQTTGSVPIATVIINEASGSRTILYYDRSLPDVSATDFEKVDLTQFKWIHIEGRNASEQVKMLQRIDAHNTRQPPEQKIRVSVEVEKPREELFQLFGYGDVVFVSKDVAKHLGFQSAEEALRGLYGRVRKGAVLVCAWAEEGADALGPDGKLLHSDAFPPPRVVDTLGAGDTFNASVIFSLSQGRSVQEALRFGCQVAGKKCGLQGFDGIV

| IC50 (human KHK-A) | IC50 (human KHK-C) | SMILES |
| --- | --- | --- |
| 935 nM | 1480 nM | C[C@H]1CCN1c1nc(-c2ccccc2)c2c(n1)C1CCC2C1 (stereo partly drawn) [Example 31, 2-((S)-2-methylazetidin-1-yl)-4-phenyl-5,6,7,8-tetrahydro-5,8-methanoquinazoline] |
| 189 nM | 220 nM | C[C@H]1CCN1c1nc(-c2cn[nH]c2)c2c(cnn2C)n1 [Example 35, (S)-1-methyl-5-(2-methylazetidin-1-yl)-7-(1H-pyrazol-4-yl)-1H-pyrazolo[4,3-d]pyrimidine] |
| 224 nM | 213 nM | C[C@H]1CCN1c1nc(-c2cccc(S(N)(=O)=O)c2)c2c(cnn2C)n1 [Example 37, (S)-3-(1-methyl-5-(2-methylazetidin-1-yl)-1H-pyrazolo[4,3-d]pyrimidin-7-yl)benzenesulfonamide] |
| 54.3 nM | 57 nM | CC(=O)Nc1cccc(-c2nc(N3CC[C@@H]3C)nc3c2CCC3)c1 [Example 40, (S)—N-(3-(2-(2-methylazetidin-1-yl)-6,7-dihydro-5H-cyclopenta[d]pyrimidin-4-yl)phenyl)acetamide] |
| 31.8 nM | 22.7 nM | C[C@H]1CCN1c1nc2c(c(-c3cccc(NS(C)(=O)=O)c3)n1)CCC2 [Example 42, (S)—N-(3-(2-(2-methylazetidin-1-yl)-6,7-dihydro-5H-cyclopenta[d]pyrimidin-4-yl)phenyl)methanesulfonamide] |
| 118 nM | 108 nM | C[C@H]1CCN1c1nc2c(c(-c3cccs3)n1)CCC2 [Example 45, (S)-2-(2-methylazetidin-1-yl)-4-(thiophen-2-yl)-6,7-dihydro-5H-cyclopenta[d]pyrimidine] |
| 10 nM | 7.6 nM | C[C@H]1CCN1c1nc2c(c(-c3cccc(C4CC4C(=O)O)c3)n1)CCC2 (stereo partly drawn) [Example 46, 2-(3-(2-((S)-2-methylazetidin-1-yl)-6,7-dihydro-5H-cyclopenta[d]pyrimidin-4-yl)phenyl)cyclopropane-1-carboxylic acid] |
| 125 nM | 222 nM | C[C@H]1CCN1c1nc2c(c(-c3ccc(C#N)s3)n1)CCC2 [Example 49, (S)-5-(2-(2-methylazetidin-1-yl)-6,7-dihydro-5H-cyclopenta[d]pyrimidin-4-yl)thiophene-2-carbonitrile] |
| 144 nM | 309 nM | C[C@H]1CCN1c1nc2c(c(-c3cccc(C(=O)NCCNC(=O)OC(C)(C)C)c3)n1)CCC2 [Example 51, tert-butyl (S)-(2-(3-(2-(2-methylazetidin-1-yl)-6,7-dihydro-5H-cyclopenta[d]pyrimidin-4-yl)benzamido)ethyl)carbamate] |
| 22.2 nM | 42.7 nM | C[C@H]1CCN1c1nc2c(c(-c3cccc(C(=O)NCCN)c3)n1)CCC2 [Example 52, (S)—N-(2-aminoethyl)-3-(2-(2-methylazetidin-1-yl)-6,7-dihydro-5H-cyclopenta[d]pyrimidin-4-yl)benzamide] |
| 130 nM | 194 nM | CNCCNC(=O)c1cccc(-c2nc(N3CC[C@@H]3C)nc3c2CCC3)c1 [Example 53, (S)—N-(2-(methylamino)ethyl)-3-(2-(2-methylazetidin-1-yl)-6,7-dihydro-5H-cyclopenta[d]pyrimidin-4-yl)benzamide] |
| 42 nM | 40.4 nM | C[C@H]1CCN1c1nc2c(c(-c3cccc(S(=O)(=O)NCCO)c3)n1)CCC2 [Example 54, (S)—N-(2-hydroxyethyl)-3-(2-(2-methylazetidin-1-yl)-6,7-dihydro-5H-cyclopenta[d]pyrimidin-4-yl)benzenesulfonamide] |

| SMILES | IC50 (human KHK-A) | IC50 (human KHK-C) |
| --- | --- | --- |
| C[C@H]1[C@H](O)CN1c1nc2c(c(-c3cccc(C(N)=O)c3)n1)CCC2 [Example 32] | 86.8 nM | 125 nM |
| C[C@H]1CCN1c1nc(-c2cccc(C(N)=O)c2)c2c(n1)C1CCC2C1 (stereo partly drawn) [Example 33, 3-(2-((S)-2-methylazetidin-1-yl)-5,6,7,8-tetrahydro-5,8-methanoquinazolin-4-yl)benzamide] | 272 nM | 240 nM |
